Data: patent US9649309B2 (priority 2014, dated 2017)

Tests used:
Axl = Axl (Homo sapiens (Human), UniProt P30530); conditions: read-out: IC50 Axl
Tyro3 = Tyro3 (Homo sapiens (Human), UniProt Q06418); conditions: read-out: IC50 Tyro3
Chain of Tyro3 (Q06418 41-890 limits assumed): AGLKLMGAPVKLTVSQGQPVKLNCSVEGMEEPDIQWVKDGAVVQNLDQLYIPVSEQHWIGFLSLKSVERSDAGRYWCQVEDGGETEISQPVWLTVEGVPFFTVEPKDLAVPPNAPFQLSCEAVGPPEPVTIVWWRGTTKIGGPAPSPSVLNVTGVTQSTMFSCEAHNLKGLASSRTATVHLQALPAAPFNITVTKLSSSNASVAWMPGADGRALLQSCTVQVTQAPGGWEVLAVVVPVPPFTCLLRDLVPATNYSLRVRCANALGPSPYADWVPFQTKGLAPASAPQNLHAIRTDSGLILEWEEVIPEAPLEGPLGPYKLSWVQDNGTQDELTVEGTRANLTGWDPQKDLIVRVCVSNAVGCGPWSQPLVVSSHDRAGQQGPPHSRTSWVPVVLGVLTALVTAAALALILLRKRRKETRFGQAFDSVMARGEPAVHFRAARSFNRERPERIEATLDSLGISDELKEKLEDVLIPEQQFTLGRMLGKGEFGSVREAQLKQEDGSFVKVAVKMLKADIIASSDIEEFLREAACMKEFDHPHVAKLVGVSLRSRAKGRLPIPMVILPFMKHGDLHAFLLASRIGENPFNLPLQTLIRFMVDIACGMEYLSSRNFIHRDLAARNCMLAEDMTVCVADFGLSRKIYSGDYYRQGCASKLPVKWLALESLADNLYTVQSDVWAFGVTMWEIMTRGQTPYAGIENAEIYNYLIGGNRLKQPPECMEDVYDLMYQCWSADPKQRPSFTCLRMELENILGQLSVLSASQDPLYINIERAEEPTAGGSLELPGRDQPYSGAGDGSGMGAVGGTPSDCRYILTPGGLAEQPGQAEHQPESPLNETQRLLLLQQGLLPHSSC

Chain of Axl (P30530 26-894 limits assumed): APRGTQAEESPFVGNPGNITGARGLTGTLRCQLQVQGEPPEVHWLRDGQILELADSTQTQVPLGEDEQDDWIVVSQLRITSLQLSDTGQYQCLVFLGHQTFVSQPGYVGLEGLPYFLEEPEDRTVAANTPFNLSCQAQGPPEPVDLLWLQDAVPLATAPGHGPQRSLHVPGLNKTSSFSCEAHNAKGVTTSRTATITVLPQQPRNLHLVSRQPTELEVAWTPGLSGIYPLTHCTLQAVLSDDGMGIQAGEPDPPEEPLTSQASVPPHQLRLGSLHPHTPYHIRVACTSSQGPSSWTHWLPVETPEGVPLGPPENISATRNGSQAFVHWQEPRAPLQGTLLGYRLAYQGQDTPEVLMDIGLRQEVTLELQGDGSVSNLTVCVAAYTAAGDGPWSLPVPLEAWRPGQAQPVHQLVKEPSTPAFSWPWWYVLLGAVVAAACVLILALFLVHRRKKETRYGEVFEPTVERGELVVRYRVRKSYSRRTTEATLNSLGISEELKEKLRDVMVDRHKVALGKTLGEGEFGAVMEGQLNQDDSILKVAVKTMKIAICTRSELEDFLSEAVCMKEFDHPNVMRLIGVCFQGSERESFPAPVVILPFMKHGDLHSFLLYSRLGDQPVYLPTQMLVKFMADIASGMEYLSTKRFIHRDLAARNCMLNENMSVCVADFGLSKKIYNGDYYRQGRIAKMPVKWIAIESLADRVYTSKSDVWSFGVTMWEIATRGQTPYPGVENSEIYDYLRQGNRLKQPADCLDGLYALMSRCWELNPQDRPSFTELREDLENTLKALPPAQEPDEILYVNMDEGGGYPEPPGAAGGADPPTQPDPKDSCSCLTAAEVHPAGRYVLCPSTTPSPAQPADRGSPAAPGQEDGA

Structure (SMILES)	IC50 (Axl) [nM]	IC50 (Tyro3) [nM]
CCCCNc1ncc(C(=O)NCCCN2CCOCC2)c(NCCCC)n1 [UNC1840A]	5540	4640
CCCCNc1ncc(C(=O)NCC2CCCCC2)c(N[C@H]2CC[C@H](O)CC2)n1 [UNC2603A]	1120	506
CCCCNc1ncc(C(=O)NCC(=O)N2CCCCC2)c(N[C@H]2CC[C@H](O)CC2)n1 [UNC2604A]	1200	412
CCCCNc1ncc(-c2ccc(NC(=O)C3CC3)cn2)c(NC2CCC(O)CC2)n1 (stereo not shown) [UNC2711A]	644	265
CCCCNc1ncc(-c2ccc(NC(=O)C3CCCCC3)cn2)c(NC2CCC(O)CC2)n1 (stereo not shown) [UNC2712A]	364	209
CCCCNc1ncc(-c2ccc(NC(=O)c3ccccc3)cn2)c(NC2CCC(O)CC2)n1 (stereo not shown) [UNC2713A]	522	325
CCCCNc1ncc(C(=O)NCc2ccc(-n3cccn3)cc2)c(N[C@H]2CC[C@H](O)CC2)n1 [UNC2744A]	277	172
CCCCNc1ncc(C(=O)NCc2cccs2)c(N[C@H]2CC[C@H](O)CC2)n1 [UNC2762A]	220	148
CCCCNc1ncc(C(=O)NCc2cccc3ccccc23)c(N[C@H]2CC[C@H](O)CC2)n1 [UNC2763A]	1090	502
CCCCNc1ncc(C(=O)Nc2ccc(CN3CCN(C)CC3)cc2)c(N[C@H]2CC[C@H](O)CC2)n1 [UNC2764A]	177	–
CCCCNc1ncc(-c2ccc(NC(=O)C3CCC3)cn2)c(NC2CCC(O)CC2)n1 (stereo not shown) [UNC2790A]	835	338
CCCCNc1ncc(-c2ccc(NC(=O)C3CCCC3)cn2)c(NC2CCC(O)CC2)n1 (stereo not shown) [UNC2791A]	886	416
CCCCNc1ncc(C(=O)NC2CCN(CCc3ccccc3)CC2)c(N[C@H]2CC[C@H](O)CC2)n1 [UNC2800A]	314	130
CCCCNc1ncc(C(=O)NC2CCN(CCCc3ccccc3)CC2)c(N[C@H]2CC[C@H](O)CC2)n1 [UNC2801A]	205	113
CCCCNc1ncc(C(=O)NC2CCN(Cc3cccnc3)CC2)c(N[C@H]2CC[C@H](O)CC2)n1 [UNC2802A]	408	123
CCCCNc1ncc(C(=O)NCc2ccc(N3CCOCC3)cc2)c(N[C@H]2CC[C@H](O)CC2)n1 [UNC2804A]	592	210
CCCCNc1ncc(C(=O)Nc2ccc(CCN3CCOCC3)cc2)c(N[C@H]2CC[C@H](O)CC2)n1 [UNC2805A]	409	184
CCCCNc1ncc(C(=O)Nc2ccc(CCN3CCN(C)CC3)cc2)c(N[C@H]2CC[C@H](O)CC2)n1 [UNC2806A]	266	98
CCCCNc1ncc(C(=O)NC2CCN(CC3CCCCC3)CC2)c(N[C@H]2CC[C@H](O)CC2)n1 [UNC2877A]	245	230
CCCCNc1ncc(C(=O)NC2CCN(CC3CCCC3)CC2)c(N[C@H]2CC[C@H](O)CC2)n1 [UNC2878A]	191	166
CCCCNc1ncc(C(=O)NCc2ccc(-n3cccc3)cc2)c(N[C@H]2CC[C@H](O)CC2)n1 [UNC2880A]	812	559
CCCCNc1ncc(C(=O)NCc2ccc(N3CCCC3)cc2)c(N[C@H]2CC[C@H](O)CC2)n1 [UNC2886A]	325	183
CCCCNc1ncc(-c2ccc(C=O)o2)c(N[C@H]2CC[C@H](O)CC2)n1 [UNC2902A, 5-(2-(Butylamino)-4-((trans-4-hydroxycyclohexyl)amino)pyrimidin-5-yl)furan-2-carbaldehyde]	1630	241
CCCCNc1ncc(-c2ccc(-c3cccc(C(=O)O)c3)nn2)c(N[C@H]2CC[C@H](O)CC2)n1 [UNC3141A]	30000	–
CCCCNc1ncc(-c2ccc(CN3CC(C)NC(C)C3)cn2)c(NC2CCC(O)CC2)n1 (stereo not shown) [UNC4105A]	–	27
CCCCNc1ncc(-c2ccc(CN3CCNCC3(C)C)cn2)c(NC2CCC(O)CC2)n1 (stereo not shown) [UNC4110A]	–	19
CCCCNc1ncc(C(=O)NCc2ccon2)c(N[C@H]2CC[C@H](O)CC2)n1 [UNC4290A]	–	375
